pIC50: −log10 of the molar value.

In this assay the target is T1, Progesterone receptor (Homo sapiens, UniProt P06401).
T1 sequence (P06401 whole entry): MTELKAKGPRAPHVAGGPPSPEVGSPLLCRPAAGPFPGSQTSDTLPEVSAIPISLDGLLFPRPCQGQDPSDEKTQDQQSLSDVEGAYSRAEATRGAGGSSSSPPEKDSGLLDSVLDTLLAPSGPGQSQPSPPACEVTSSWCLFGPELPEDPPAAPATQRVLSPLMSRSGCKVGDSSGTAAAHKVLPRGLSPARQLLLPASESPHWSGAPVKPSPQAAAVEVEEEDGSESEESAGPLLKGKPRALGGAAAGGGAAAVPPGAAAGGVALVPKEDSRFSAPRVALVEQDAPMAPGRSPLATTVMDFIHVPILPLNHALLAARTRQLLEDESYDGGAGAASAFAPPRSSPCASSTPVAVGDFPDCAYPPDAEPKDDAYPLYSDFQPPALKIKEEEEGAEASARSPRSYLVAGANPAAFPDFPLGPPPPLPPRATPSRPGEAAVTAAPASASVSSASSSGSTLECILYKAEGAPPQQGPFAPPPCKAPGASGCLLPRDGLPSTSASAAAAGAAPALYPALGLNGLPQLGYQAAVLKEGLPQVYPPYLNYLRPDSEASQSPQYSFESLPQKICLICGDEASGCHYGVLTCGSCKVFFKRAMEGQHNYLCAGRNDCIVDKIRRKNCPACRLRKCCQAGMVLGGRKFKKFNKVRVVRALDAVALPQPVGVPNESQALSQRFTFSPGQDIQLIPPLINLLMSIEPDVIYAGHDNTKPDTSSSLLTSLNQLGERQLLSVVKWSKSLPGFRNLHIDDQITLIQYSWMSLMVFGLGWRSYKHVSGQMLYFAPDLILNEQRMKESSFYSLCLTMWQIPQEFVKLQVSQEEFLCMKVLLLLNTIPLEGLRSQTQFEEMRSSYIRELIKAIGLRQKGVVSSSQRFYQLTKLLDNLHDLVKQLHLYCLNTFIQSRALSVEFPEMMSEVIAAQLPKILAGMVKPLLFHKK
Nature of the assay: Antagonist activity at progesterone receptor expressed in T47D cells assessed as inhibition of progesterone-induced alkaline phosphatase activity. Format: functional, cell-based.
By pIC50 is commonly meant −log10 of the IC50, conventionally taken in molar units. Turning to `CC1(C)OC(=O)N(Cc2ccccc2)c2ccc(Nc3ccc(Br)cc3)cc21`, the pIC50 was 5.52.
Regarding `CN1C(=S)OC(C)(C)c2cc(Nc3ccc(Br)cc3)ccc21`, the pIC50 is 7.52.
As for `CN1C(=O)OC(c2ccc(Cl)cc2)(c2ccc(Cl)cc2)c2cc(Nc3cccc(Cl)c3)ccc21`, the pIC50 was 6.00.
Consider `CCC1(CC)OC(=O)N(C)c2ccc(Nc3cccc(Cl)c3)cc21`, for which the pIC50 is 7.88.
For the molecule `CCC1(c2ccccc2)OC(=O)N(C)c2ccc(Nc3cccc(Cl)c3)cc21` (centres undefined), the pIC50 is 7.18.
With `CN1C(=O)OC(C)(C)c2cc(Nc3cccc(Cl)c3Cl)ccc21`, the pIC50 was 7.25.
Take `CCC1(CC)OC(=O)N(C)c2ccc(Nc3ccc(C#N)c(F)c3)cc21`: the pIC50 was 7.43.
With `CN1C(=O)OC(C)(C)c2cc(Nc3ccc(Cl)c(Cl)c3)ccc21` the figure was 7.00; with `CCC1(CC)OC(=O)N(C)c2ccc(Nc3cc(F)cc(C#N)c3)cc21`, 7.84.
With `CC1(C)OC(=O)N(c2ccccc2)c2ccc(Nc3ccc(Br)cc3)cc21`, the pIC50 was 5.52.
`CCC1(CC)OC(=O)N(C)c2ccc(Nc3ccc(F)c(F)c3)cc21`: the pIC50 is 7.56.
In the case of `CCC1(CC)OC(=O)N(C)c2ccc(Nc3ccc(F)c(C#N)c3)cc21`, the negative logarithm of the IC50 (pIC50) is 8.04.
`CC(C)N1C(=O)OC(C)(C)c2cc(Nc3ccc(Br)cc3)ccc21`: the pIC50 is 6.00.
With `CCC1(CC)OC(=O)N(C)c2ccc(Nc3ccc(Cl)c(Cl)c3)cc21` the figure was 7.53; with `CCC1(CC)OC(=S)N(C)c2ccc(Nc3ccc(F)c(F)c3)cc21`, 7.37.
Turning to `CCC1(CC)OC(=O)N(C)c2ccc(Nc3cc(F)cc([N+](=O)[O-])c3)cc21`, the pIC50 is 8.08.
`CCC1(CC)OC(=O)N(C)c2ccc(Nc3cccc(Cl)c3Cl)cc21`: the pIC50 is 8.30.
For the molecule `CCC1(c2ccc(Cl)cc2)OC(=O)N(C)c2ccc(Nc3cccc(Cl)c3)cc21` (centres undefined), the pIC50 was 7.14.
In the case of `CCC1(CC)OC(=O)N(C)c2ccc(Nc3ccc(F)c(Cl)c3)cc21`, the pIC50 is 8.05.
As to `CCC1(CC)OC(=O)N(C)c2ccc(Nc3cc(Cl)cc(Cl)c3)cc21`, the pIC50 was 8.09.
As for `CC1(C)OC(=O)Nc2ccc(Nc3cccc(Cl)c3Cl)cc21`, the pIC50 is 6.69.
In the case of `CN1C(=O)OC(C)(C)c2cc(Nc3ccc(Br)cc3)ccc21`, the negative-log IC50 (pIC50) was 7.26.
On to `CCN1C(=O)OC(C)(C)c2cc(Nc3ccc(Br)cc3)ccc21`, for which the pIC50 was 6.00.
On to `CCC1(c2cccs2)OC(=O)N(C)c2ccc(Nc3cccc(Cl)c3)cc21` (centres undefined), for which the pIC50 was 7.49.

The values above are taken from ChEMBL document CHEMBL1138375, “SAR studies of 6-(arylamino)-4,4-disubstituted-1-methyl-1,4-dihydro-benzo[d][1,3]oxazin-2-ones as progesterone receptor antagonists” (Bioorg Med Chem Lett, 2007).
